Assays:
Karenia brevis = experiment: K. brevis cell abundance reduction (% R relative to control) in laboratory beakers/aquaria; assay type: cell-based; conditions: for mean % R in K. brevis cell abundance: beginning at 4 h
K. brevis = conditions: other studies; cited from earlier work

SMILES	mean % R in K. brevis cell abundance (Karenia brevis; 30 mg/L curcumin)	mean % R in K. brevis cell abundance (Karenia brevis; 40 mg/L curcumin)	reduction in K. brevis (best mitigation results) (Karenia brevis; 20-40 mg/L curcumin, T2-T6)	minimum concentration of curcumin for a reduction in K. brevis (Karenia brevis; laboratory studies)	effect on K. brevis cells (K. brevis)
COc1cc(/C=C/C(=O)CC(=O)/C=C/c2ccc(O)c(OC)c2)ccc1O [curcumin, (1E,6E)-1,7-Bis (4 (hydroxy-3-methoxyphenyl)-1,6-heptadiene-3,5-dione)]	> 90%	> 90%	60-100%	5 mg/L	
CCCCOC(=O)c1ccccc1C(=O)OCCCC [dibutyl phthalate]					inhibit cell growth, decrease cell abundance, reduce chlorophyll a, and cause oxidative stress

From patent publication US20250064057A1, “HARMFUL ALGAL BLOOM MITIGATION” (priority 2023, published 2025)
